Source: PubChem BioAssay AID2060513 (Molecular Pharmacology Branch, DTP, NCI, 2025)
pIC50: −log10 of the molar value.

Tested on: 299254-011-R-J1-PDC complex spheroids viability
Assay: Anticancer human tumor 299254-011-R-J1-PDC patient-derived melanoma cell line growth inhibition [GQUAD]
Conditions: for pIC50: curve of first compound; for viability, T/C: stronger effect = lower value; active = viability on the fitted dose curve at most 10% of control; inactive = the rest
Outline: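 Tumor cells were grown as complex spheroids with HUVEC endothelial cells and mesenchymal stem cells as stroma. G-quadruplex stabilizers were combined with targeted agents over half-log dilutions from near the clinical Cmax, or from 10 microM.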

[1] = second compound 0.0316 µM, first compound 0.0316 µM
[2] = second compound 0.0316 µM, first compound 0.1 µM
[3] = second compound 0.0316 µM, first compound 0.316 µM
[4] = second compound 0.0316 µM, first compound 1 µM
[5] = second compound 0.0316 µM, first compound 3.16 µM
[6] = second compound 0.0316 µM, first compound 10 µM
[7] = second compound 0.1 µM, first compound 0.0316 µM
[8] = second compound 0.1 µM, first compound 0.1 µM
[9] = second compound 0.1 µM, first compound 0.316 µM
[10] = second compound 0.1 µM, first compound 1 µM
[11] = second compound 0.1 µM, first compound 3.16 µM
[12] = second compound 0.1 µM, first compound 10 µM
[13] = second compound 0.316 µM, first compound 0.0316 µM
[14] = second compound 0.316 µM, first compound 0.1 µM
[15] = second compound 0.316 µM, first compound 0.316 µM
[16] = second compound 0.316 µM, first compound 1 µM
[17] = second compound 0.316 µM, first compound 3.16 µM
[18] = second compound 0.316 µM, first compound 10 µM
[19] = second compound 1 µM, first compound 0.0316 µM
[20] = second compound 1 µM, first compound 0.1 µM
[21] = second compound 1 µM, first compound 0.316 µM
[22] = second compound 1 µM, first compound 1 µM
[23] = second compound 1 µM, first compound 3.16 µM
[24] = second compound 1 µM, first compound 10 µM
[25] = second compound 3.16 µM, first compound 0.0316 µM
[26] = second compound 3.16 µM, first compound 0.1 µM
[27] = second compound 3.16 µM, first compound 0.316 µM
[28] = second compound 3.16 µM, first compound 1 µM
[29] = second compound 3.16 µM, first compound 3.16 µM
[30] = second compound 3.16 µM, first compound 10 µM
[31] = second compound 10 µM, first compound 0.0316 µM
[32] = second compound 10 µM, first compound 0.1 µM
[33] = second compound 10 µM, first compound 0.316 µM
[34] = second compound 10 µM, first compound 1 µM
[35] = second compound 10 µM, first compound 3.16 µM
[36] = second compound 10 µM, first compound 10 µM
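Also: spheroids exposed to the agents for seven days before readout.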
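For viability, T/C in this document: percent viability relative to DMSO vehicle control wells = 100%.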

CCCS(=O)(=O)Nc1ccc(F)c(C(=O)c2c[nH]c3ncc(-c4ccc(Cl)cc4)cc23)c1F + Cc1[nH]c2ccc(F)cc2c1-c1nc2c3cccnc3c3ncccc3c2[nH]1
5.11: pIC50 (second compound 3.16 µM)
5.09: pIC50 (second compound 0.316 µM)
5.13: pIC50 (second compound 10 µM)
inactive: viability, T/C [1] 91.6% | viability, T/C [2] 109% | viability, T/C [3] 109% | viability, T/C [4] 88.3% | viability, T/C [5] 76.8% | viability, T/C [6] 45.4% | viability, T/C [7] 98.6% | viability, T/C [8] 110% | viability, T/C [9] 100% | viability, T/C [10] 82.7% | viability, T/C [11] 105% | viability, T/C [12] 41.9% | viability, T/C [13] 86.6% | viability, T/C [14] 123% | viability, T/C [15] 110% | viability, T/C [16] 108% | viability, T/C [17] 90.7% | viability, T/C [18] 40.4% | viability, T/C [19] 94.8% | viability, T/C [20] 103% | viability, T/C [21] 84.1% | viability, T/C [22] 107% | viability, T/C [23] 79.7% | viability, T/C [24] 38.6% | viability, T/C [25] 91.4% | viability, T/C [26] 109% | viability, T/C [27] 92.3% | viability, T/C [28] 115% | viability, T/C [29] 82.6% | viability, T/C [30] 40.7% | viability, T/C [31] 81.3% | viability, T/C [32] 108% | viability, T/C [33] 101% | viability, T/C [34] 105% | viability, T/C [35] 88.8% | viability, T/C [36] 35.8%
5.14: pIC50 (second compound 1 µM)
5.07: pIC50 (second compound 0.0316 µM) | pIC50 (second compound 0.1 µM)

CC[C@@]1(O)C(=O)OCc2c1cc1n(c2=O)Cc2cc3c(CN(C)C)c(O)ccc3nc2-1 + CN(C)c1ccc(Nc2c3ccc(NC(=O)CCN4CCCC4)cc3nc3cc(NC(=O)CCN4CCCC4)ccc23)cc1
< 6.50: pIC50 (second compound 0.0316 µM) | pIC50 (second compound 0.1 µM) | pIC50 (second compound 0.316 µM) | pIC50 (second compound 1 µM) | pIC50 (second compound 3.16 µM) | pIC50 (second compound 10 µM)
inactive: viability, T/C (second compound 0.0316 µM, first compound 0.000999 µM) 99.2% | viability, T/C (second compound 0.0316 µM, first compound 0.00316 µM) 105% | viability, T/C (second compound 0.0316 µM, first compound 0.00999 µM) 126% | viability, T/C [1] 107% | viability, T/C (second compound 0.0316 µM, first compound 0.0999 µM) 112% | viability, T/C [3] 90.4% | viability, T/C (second compound 0.1 µM, first compound 0.000999 µM) 120% | viability, T/C (second compound 0.1 µM, first compound 0.00316 µM) 93.2% | viability, T/C (second compound 0.1 µM, first compound 0.00999 µM) 98.7% | viability, T/C [7] 101% | viability, T/C (second compound 0.1 µM, first compound 0.0999 µM) 84.5% | viability, T/C [9] 90.1% | viability, T/C (second compound 0.316 µM, first compound 0.000999 µM) 108% | viability, T/C (second compound 0.316 µM, first compound 0.00316 µM) 120% | viability, T/C (second compound 0.316 µM, first compound 0.00999 µM) 108% | viability, T/C [13] 90.1% | viability, T/C (second compound 0.316 µM, first compound 0.0999 µM) 85.8% | viability, T/C [15] 101% | viability, T/C (second compound 1 µM, first compound 0.000999 µM) 106% | viability, T/C (second compound 1 µM, first compound 0.00316 µM) 105% | viability, T/C (second compound 1 µM, first compound 0.00999 µM) 115% | viability, T/C [19] 114% | viability, T/C (second compound 1 µM, first compound 0.0999 µM) 97.6% | viability, T/C [21] 81.8% | viability, T/C (second compound 3.16 µM, first compound 0.000999 µM) 103% | viability, T/C (second compound 3.16 µM, first compound 0.00316 µM) 97% | viability, T/C (second compound 3.16 µM, first compound 0.00999 µM) 122% | viability, T/C [25] 125% | viability, T/C (second compound 3.16 µM, first compound 0.0999 µM) 124% | viability, T/C [27] 95.9% | viability, T/C (second compound 10 µM, first compound 0.000999 µM) 112% | viability, T/C (second compound 10 µM, first compound 0.00316 µM) 89.3% | viability, T/C (second compound 10 µM, first compound 0.00999 µM) 110% | viability, T/C [31] 97.1% | viability, T/C (second compound 10 µM, first compound 0.0999 µM) 91.6% | viability, T/C [33] 90.1%

C=CC(=O)N1CCN(c2nc(=O)n(-c3c(C)ccnc3C(C)C)c3nc(-c4c(O)cccc4F)c(F)cc23)C(C)C1 (stereo unspecified) + Cc1cnc(CNC(=O)c2c(=O)c3ccc(N4CCCN(C)CC4)nc3n3c2sc2ccccc23)cn1
< 5.00: pIC50 (second compound 0.0316 µM) | pIC50 (second compound 0.1 µM) | pIC50 (second compound 0.316 µM) | pIC50 (second compound 1 µM) | pIC50 (second compound 3.16 µM)
> 7.50: pIC50 (second compound 10 µM)
active: viability, T/C [31] 0.4% | viability, T/C [32] 0.46% | viability, T/C [33] 8.66% | viability, T/C [34] 0.41% | viability, T/C [35] 0.41% | viability, T/C [36] 0.36%
inactive: viability, T/C [1] 73.3% | viability, T/C [2] 71.1% | viability, T/C [3] 69.3% | viability, T/C [4] 58.3% | viability, T/C [5] 59.4% | viability, T/C [6] 76.8% | viability, T/C [7] 67.8% | viability, T/C [8] 74.9% | viability, T/C [9] 64.1% | viability, T/C [10] 57.6% | viability, T/C [11] 60.7% | viability, T/C [12] 78.2% | viability, T/C [13] 93% | viability, T/C [14] 72.9% | viability, T/C [15] 60.8% | viability, T/C [16] 67.4% | viability, T/C [17] 65.1% | viability, T/C [18] 70.3% | viability, T/C [19] 73.8% | viability, T/C [20] 65.3% | viability, T/C [21] 65.2% | viability, T/C [22] 67.3% | viability, T/C [23] 83.7% | viability, T/C [24] 61.2% | viability, T/C [25] 76.3% | viability, T/C [26] 78.9% | viability, T/C [27] 63.5% | viability, T/C [28] 69.8% | viability, T/C [29] 74.6% | viability, T/C [30] 52.9%
